# Patent US6552088B2, “Biphenyl derivatives” (Hoffmann-La Roche Inc., priority 1999, dated 2003)
# What was measured:
# human NK-1 receptor = target: T1, human NK-1 receptor (Homo sapiens, UniProt P25103); experiment: Affinity for the NK-1 receptor, [3H] substance P displacement binding assay; conditions: human NK-1 receptors in CHO cells (Semliki virus expression system); [3H] substance P 0.6 nM; 60 min at room temperature; read-out: affinity to the NK-1 receptor, given as pKi (converted)
# T1 construct: expressed in transfected cells; host or cells: CHO cells infected using the Semliki virus expression system; membrane suspension
# Procedure: The affinity of test compounds for the NK-1 receptor was evaluated at human NK-1 receptors in CHO cells infected with the human NK-1 receptor (using the Semliki virus expression system) and radiolabelled with [3H] substance P (final concentration 0.6 nM). Binding assays were performed in HEPES buffer (50 mM, pH 7.4) containing BSA (0.04%) leupeptin (8 μg/ml), MnCl2 (3 mM) and phosphoramidon (2 μM). Binding assays consisted of 250 μl of membrane suspension (1.25×10^5 cells/assay tube), […] of buffer of displacing agent and 125 μl of [3H] substance P. Displacement curves were determined with at least seven concentrations of the compound. The assay tubes were incubated for 60 min at room temperature after which time the tube contents were rapidly filtered under vacuum through GF/C filters presoaked for 60 min with PEI (0.3%) with 2×2 ml washed of HEPES buffer (50 mM, pH 7.4). The radioactivity retained on the filters was measured by scintillation counting. All assays were performed in triplicate in at least 2 separate experiments.
# T1 sequence (P25103 whole entry): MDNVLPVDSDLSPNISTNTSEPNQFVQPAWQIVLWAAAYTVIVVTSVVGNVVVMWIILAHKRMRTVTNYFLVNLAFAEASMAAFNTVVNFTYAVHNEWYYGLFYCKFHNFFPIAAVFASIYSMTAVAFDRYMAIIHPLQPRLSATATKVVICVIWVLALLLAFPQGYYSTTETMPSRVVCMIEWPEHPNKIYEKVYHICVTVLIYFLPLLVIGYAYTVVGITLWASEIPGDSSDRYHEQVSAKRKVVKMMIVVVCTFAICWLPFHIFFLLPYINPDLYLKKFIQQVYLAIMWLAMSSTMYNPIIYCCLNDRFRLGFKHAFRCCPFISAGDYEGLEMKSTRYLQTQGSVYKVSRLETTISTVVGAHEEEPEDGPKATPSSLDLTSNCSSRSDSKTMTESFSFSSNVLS
SMILES,melting point [°C],Ki (human NK-1 receptor) [nM]
"Cc1ccccc1-c1cc(N2CCN(C)CC2)ccc1C(=O)N(C)Cc1cc(C(F)(F)F)cc(C(F)(F)F)c1 [Example 27, 2′-Methyl-5-(4-methyl-piperazin-1-yl)-biphenyl-2-carboxylic acid (3,5-bis-trifluoromethyl-benzyl)-methyl-amide]",–,1.45
"CN(Cc1cc(Cl)cc(Cl)c1)C(=O)c1ccccc1-c1ccccc1 [Example 2, Biphenyl-2-carboxylic acid (3,5-dichloro-benzyl)-methyl-amide]",126 to 128,–
"Cc1ccccc1-c1ccc(N)cc1N(C)C(=O)C(C)(C)c1cc(C(F)(F)F)cc(C(F)(F)F)c1 [Example 18, N-(4-Amino-2′-methyl-biphenyl-2-yl)-2-(3,5-bis-trifluoromethyl-phenyl)-N-methyl-isobutyramide]",–,5.25

# Second part, the compound after the results:
melting point [°C],Ki (human NK-1 receptor) [nM],SMILES
126.7 to 127.1,–,"Cc1cc(CN(C)C(=O)c2ccccc2-c2ccccc2)cc(C(F)(F)F)c1 [Example 3, Biphenyl-2-carboxylic acid methyl-(3-methyl-5-trifluoromethyl-benzyl)-amide]"
–,9.77,"CNc1ccc(-c2ccccc2C)c(N(C)C(=O)C(C)(C)c2cc(C(F)(F)F)cc(C(F)(F)F)c2)c1 [Example 20, 2-(3,5-Bis-trifluoromethyl-phenyl)-N-methyl-N-(2′-methyl-4-methylamino-biphenyl-2-yl)-isobutyramide]"
